Source: patent US20200231545A1, “CHARGED ION CHANNEL BLOCKERS AND METHODS FOR USE THEREOF” (President and Fellows of Harvard College, priority 2019, published 2020)
“And” between values parts separate entries of the source, which are not always exact repeats. Identical values can stand only once.

Legend:
human Nav1.7 channels = target: T1, human Nav1.7 channels (Homo sapiens, UniProt Q15858); assay: Whole-cell patch clamp, use-dependent block of sodium current, compound dialyzed inside cells; format: cell-based; conditions: 10 micromolar intracellular; stimulation series 0.05 to 10 Hz; HEK293 hNav1.7
T1 construct: expressed in transfected cells
Method: Whole-cell recordings were made of currents carried by voltage-activated sodium channels in HEK293 cells stably expressing human Nav1.7 channels. Recordings were made using patch pipettes with resistances of 2-3.5 MO when filled with internal solution, consisting of 61 mM CsF, 61 mM CsCl, 9 mM NaCl, 1.8 mM MgCl2, 9 mM EGTA, 14 mM creatine phosphate (tris salt), 4 mM MgATP, and 0.3 mM GTP (tris salt), 9 mM HEPES, pH adjusted to 7.2 with CsOH. The shank of the electrode was wrapped with Parafilm in order to reduce capacitance and allow optimal series resistance compensation without oscillation. Seals were obtained and the whole-cell configuration established with cells in Tyrode's solution (155 mM NaCl, 3.5 mM KCl, 1.5 mM CaCl2), 1 mM MgCl2, 10 mM HEPES, 10 mM glucose, pH adjusted to 7.4 with NaOH) with 10 mM TEACl. To ensure complete dialysis with pipette solution containing the test compounds, recordings began after 5 to 10 minutes after establishment of the whole-cell configuration.
Currents were recorded at room temperature (21-23° C.) with an Axopatch 200 amplifier or […] amplifier and filtered at 5-10 kHz with a low-pass Bessel filter. The amplifier was tuned for partial compensation of series resistance (typically 70-80% of a total series resistance of 4-10 MO). Currents were digitized using a Digidata 1322A data acquisition interface controlled by pClamp9 or pClamp10 software (Axon Instruments) and analyzed using programs written in Igor Pro 4.0 (Wavemetrics, Lake Oswego, Oreg.). Currents were corrected for linear capacitative and leak currents determined using 5 mV hyperpolarizations delivered from the resting potential (usually −80 or −100 mV) and then appropriately scaled and subtracted.
Sodium currents were evoked by 30-msec depolarizations from −100 mV to −20 mV. To assay use-dependent block, pulses were delivered at series of increasing rates: 0.05 Hz for 1-min, 0.33 Hz for 1-min, 1 Hz for 1-min, 3 Hz for 1-min, 5 Hz for 30 seconds, 10 Hz for 30 seconds, with 1 minute rest between each series of pulses. […]

Nav1.7 sodium channels = target: T2, Nav1.7 sodium channels (Homo sapiens, UniProt Q15858); assay: Thallium flux assay, extracellular block of sodium channel in HEK293 cells; format: cell-based
T2 construct: expressed in transfected cells
Method: (§1) Charged sodium channel blockers were tested for extracellular block of voltage-gated sodium channels in a thallium flux assay. Briefly, human embryonic kidney (HEK293) cells stably expressing either the Nav1.5 or Nav1.7 sodium channels were plated in 384 well plates. After overnight culture at 37° C., the cell culture medium was replaced the thallium-sensitive FluxOR dye (FluxOR assay kit, Thermo Fisher). Following a 60 minute incubation at room temperature, the dye-loading solution was replaced with assay buffer and the plates were loaded into a FDSS 7000EX multi-well plate reader (Hamamatsu). Dye fluorescence was measured using Fluo-4 filters (excitation 470 nm, emission 540 nm) at 1 Hz. Baseline fluorescence was measured for 30 s, followed by the addition of 15 μL/well of charged sodium channel blocker compounds. 10 minutes after compound addition, the cells were stimulated with a Tl^+ stimulus buffer and fluorescence measured. Tetraethylammonium (TEA) was used to block Kv channels and veratridine to block Nav channel inactivation. The fluorescence data was normalized with respect to no veratridine stimulus buffer control in order to isolate and measure the Nav channel component of the thallium flux.

Nav1.5 sodium channels = target: T3, Nav1.5 sodium channels (Homo sapiens, UniProt Q14524); assay: as above; format: cell-based; conditions: HEK cells
T3 construct: expressed in transfected cells
Method: as §1

[1] = tested on: endogenous Nav currents in TRPV1 expressing DRG neurons; assay: Patch clamp of sodium currents in DRG neurons after pretreatment with capsaicin + blocker; format: cell-based, mouse; conditions: 100 micromolar with 300 nM capsaicin for 30 minutes, then washed off
Method: Charged sodium channel blockers were tested for intracellular block of voltage-gated sodium currents after entry through activated TRPV1 channels in dissociated mouse dorsal root ganglia (DRG) neurons in vitro. DRG neurons from 8-week-old C57/B16 mice were removed and placed in DMEM containing 1% penicillin-streptomycin (Sigma), then treated for 90 minutes with 5 mg/mL collagenase, 1 mg/mL Dispase II (Roche). Cells were triturated in the presence of DNase I […] (50 U), centrifuged through 10% BSA (Sigma), resuspended in 1 mL of Neurobasal medium (Sigma)+1X B27 supplement (Thermo Fisher) and 1% penicillin-streptomycin, and plated onto 35-mm tissue culture dishes (Becton Dickinson) coated with 20 μg/mL laminin, at 8,000-9,000 cells per dish. Cultures were incubated at 37° C. under 5% CO2. Recordings were made at room temperature within 24 hours of plating. The DRG neurons were treated with 300 nM capsaicin alone or 300 nM capsaicin+100 μM charged sodium channel blocker in external solution for 30 minutes, after which the blocker was washed off with fresh external solution. Whole-cell voltage-clamp recordings of sodium currents were performed in small diameter DRG neurons and then the expression of TRPV1 measured by perfusion of 1 μM capsaicin. […]

[2] = tested on: citric acid induced cough; assay: Citric acid induced cough in ovalbumin sensitized guinea pigs, inhaled treatment; format: in vivo, guinea pig; conditions: for inhibition of cough: inhaled one hour before 400 mM citric acid challenge, versus vehicle group; for Cough Count: total cough count of each individual animal, inhaled, one hour before citric acid
Method: Dunkin Hartley Guinea pigs were used in this study (male and female). On Day 0 all animals were sensitized with an intraperitoneal and subcutaneous injection of 50 mg chicken egg albumin (ovalbumin). Animals were administered 1 mL of a 50 mg/mL ovalbumin in 0.9% w/v saline solution via the intraperitoneal route and 0.5 mL of the same solution into 2 separate subcutaneous sites (1 mL in total divided between the left and right flank). All animals were administered a single intraperitoneal dose of pyrilamine (15 mg/kg) at a dose volume of 1 mL/kg approximately 30 minutes prior to ovalbumin challenge on Day 14 to inhibit histamine-induced bronchospasm. On Day 14, animals were challenged with aerosolised ovalbumin in 0.9% w/v saline (3 mg/mL) for 15 min.
Animals were placed in groups in an acrylic box. Then 8 mL of ovalbumin in saline was placed in each of two jet nebulisers (Sidestream®). Compressed air was passed through each nebuliser at approximately 6 L/min and the output of the nebulisers passed into the box containing the animals. On Day 15, approximately 24 hours after the inflammatory challenge with ovalbumin, animals were dosed with either vehicle, compound 1, or compound 2 by inhalation. One hour following the end of vehicle, compound 1, or compound 2 administration on Day 15, animals were placed into a whole body plethysmograph connected to a Buxco Finepointe system. All animals were then exposed to nebulized 400 mM citric acid for 7 minutes via an Aeroneb® nebuliser.
Cough counts and respiratory parameters (respiratory rate, tidal volume, minute volume and Penh) were recorded throughout the exposure period and for 10 minutes following the end of nebulization period.

T2 sequence (Q15858 whole entry): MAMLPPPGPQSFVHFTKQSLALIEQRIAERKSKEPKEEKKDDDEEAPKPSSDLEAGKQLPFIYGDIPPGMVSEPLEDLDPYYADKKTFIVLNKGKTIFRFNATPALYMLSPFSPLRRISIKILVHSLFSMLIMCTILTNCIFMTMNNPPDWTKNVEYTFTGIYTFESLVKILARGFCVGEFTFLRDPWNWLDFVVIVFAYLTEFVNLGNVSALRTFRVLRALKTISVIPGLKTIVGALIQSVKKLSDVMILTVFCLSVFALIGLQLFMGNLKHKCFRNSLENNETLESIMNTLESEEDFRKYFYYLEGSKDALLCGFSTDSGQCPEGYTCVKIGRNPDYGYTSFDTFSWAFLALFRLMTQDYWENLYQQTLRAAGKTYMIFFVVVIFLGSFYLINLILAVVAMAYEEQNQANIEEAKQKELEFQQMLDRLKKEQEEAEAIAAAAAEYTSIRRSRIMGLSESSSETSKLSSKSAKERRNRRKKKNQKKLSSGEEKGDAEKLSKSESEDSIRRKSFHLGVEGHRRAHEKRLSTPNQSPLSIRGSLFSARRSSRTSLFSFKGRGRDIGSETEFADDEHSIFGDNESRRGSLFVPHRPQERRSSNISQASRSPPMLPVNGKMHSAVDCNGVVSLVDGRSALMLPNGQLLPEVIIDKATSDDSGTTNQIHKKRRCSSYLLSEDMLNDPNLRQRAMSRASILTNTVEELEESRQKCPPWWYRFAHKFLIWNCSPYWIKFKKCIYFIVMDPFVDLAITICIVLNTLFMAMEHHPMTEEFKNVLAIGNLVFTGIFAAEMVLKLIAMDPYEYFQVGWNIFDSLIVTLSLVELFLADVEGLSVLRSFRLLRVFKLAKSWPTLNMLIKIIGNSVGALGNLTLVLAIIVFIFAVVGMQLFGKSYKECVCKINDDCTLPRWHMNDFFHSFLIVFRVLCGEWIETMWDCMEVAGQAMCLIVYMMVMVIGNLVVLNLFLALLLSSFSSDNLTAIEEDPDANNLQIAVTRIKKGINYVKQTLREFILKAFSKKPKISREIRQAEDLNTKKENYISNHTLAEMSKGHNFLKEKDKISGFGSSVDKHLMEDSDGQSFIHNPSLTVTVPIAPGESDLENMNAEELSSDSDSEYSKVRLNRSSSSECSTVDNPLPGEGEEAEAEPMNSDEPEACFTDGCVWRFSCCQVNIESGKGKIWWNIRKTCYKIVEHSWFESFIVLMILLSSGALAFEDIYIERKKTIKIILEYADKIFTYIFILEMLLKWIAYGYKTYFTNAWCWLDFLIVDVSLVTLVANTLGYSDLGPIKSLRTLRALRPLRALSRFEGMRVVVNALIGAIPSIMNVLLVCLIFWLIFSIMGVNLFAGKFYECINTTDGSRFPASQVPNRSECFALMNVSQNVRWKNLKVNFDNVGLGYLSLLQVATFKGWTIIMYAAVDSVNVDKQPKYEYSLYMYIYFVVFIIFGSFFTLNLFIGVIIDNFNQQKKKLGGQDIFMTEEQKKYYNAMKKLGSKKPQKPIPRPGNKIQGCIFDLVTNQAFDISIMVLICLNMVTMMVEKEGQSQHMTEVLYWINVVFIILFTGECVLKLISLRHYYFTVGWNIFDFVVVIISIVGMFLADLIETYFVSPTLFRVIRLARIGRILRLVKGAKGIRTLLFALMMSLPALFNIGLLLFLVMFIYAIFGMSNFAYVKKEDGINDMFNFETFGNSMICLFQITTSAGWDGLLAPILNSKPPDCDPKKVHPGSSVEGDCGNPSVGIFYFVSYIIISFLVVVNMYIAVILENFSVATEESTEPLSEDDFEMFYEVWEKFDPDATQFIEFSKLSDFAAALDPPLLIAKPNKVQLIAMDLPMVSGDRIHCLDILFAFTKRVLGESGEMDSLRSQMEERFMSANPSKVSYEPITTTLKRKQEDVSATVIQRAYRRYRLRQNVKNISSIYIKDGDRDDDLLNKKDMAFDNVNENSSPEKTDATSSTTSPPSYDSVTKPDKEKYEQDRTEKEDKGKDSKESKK
T1 sequence (Q15858 whole entry): as above
T3 sequence (Q14524 whole entry): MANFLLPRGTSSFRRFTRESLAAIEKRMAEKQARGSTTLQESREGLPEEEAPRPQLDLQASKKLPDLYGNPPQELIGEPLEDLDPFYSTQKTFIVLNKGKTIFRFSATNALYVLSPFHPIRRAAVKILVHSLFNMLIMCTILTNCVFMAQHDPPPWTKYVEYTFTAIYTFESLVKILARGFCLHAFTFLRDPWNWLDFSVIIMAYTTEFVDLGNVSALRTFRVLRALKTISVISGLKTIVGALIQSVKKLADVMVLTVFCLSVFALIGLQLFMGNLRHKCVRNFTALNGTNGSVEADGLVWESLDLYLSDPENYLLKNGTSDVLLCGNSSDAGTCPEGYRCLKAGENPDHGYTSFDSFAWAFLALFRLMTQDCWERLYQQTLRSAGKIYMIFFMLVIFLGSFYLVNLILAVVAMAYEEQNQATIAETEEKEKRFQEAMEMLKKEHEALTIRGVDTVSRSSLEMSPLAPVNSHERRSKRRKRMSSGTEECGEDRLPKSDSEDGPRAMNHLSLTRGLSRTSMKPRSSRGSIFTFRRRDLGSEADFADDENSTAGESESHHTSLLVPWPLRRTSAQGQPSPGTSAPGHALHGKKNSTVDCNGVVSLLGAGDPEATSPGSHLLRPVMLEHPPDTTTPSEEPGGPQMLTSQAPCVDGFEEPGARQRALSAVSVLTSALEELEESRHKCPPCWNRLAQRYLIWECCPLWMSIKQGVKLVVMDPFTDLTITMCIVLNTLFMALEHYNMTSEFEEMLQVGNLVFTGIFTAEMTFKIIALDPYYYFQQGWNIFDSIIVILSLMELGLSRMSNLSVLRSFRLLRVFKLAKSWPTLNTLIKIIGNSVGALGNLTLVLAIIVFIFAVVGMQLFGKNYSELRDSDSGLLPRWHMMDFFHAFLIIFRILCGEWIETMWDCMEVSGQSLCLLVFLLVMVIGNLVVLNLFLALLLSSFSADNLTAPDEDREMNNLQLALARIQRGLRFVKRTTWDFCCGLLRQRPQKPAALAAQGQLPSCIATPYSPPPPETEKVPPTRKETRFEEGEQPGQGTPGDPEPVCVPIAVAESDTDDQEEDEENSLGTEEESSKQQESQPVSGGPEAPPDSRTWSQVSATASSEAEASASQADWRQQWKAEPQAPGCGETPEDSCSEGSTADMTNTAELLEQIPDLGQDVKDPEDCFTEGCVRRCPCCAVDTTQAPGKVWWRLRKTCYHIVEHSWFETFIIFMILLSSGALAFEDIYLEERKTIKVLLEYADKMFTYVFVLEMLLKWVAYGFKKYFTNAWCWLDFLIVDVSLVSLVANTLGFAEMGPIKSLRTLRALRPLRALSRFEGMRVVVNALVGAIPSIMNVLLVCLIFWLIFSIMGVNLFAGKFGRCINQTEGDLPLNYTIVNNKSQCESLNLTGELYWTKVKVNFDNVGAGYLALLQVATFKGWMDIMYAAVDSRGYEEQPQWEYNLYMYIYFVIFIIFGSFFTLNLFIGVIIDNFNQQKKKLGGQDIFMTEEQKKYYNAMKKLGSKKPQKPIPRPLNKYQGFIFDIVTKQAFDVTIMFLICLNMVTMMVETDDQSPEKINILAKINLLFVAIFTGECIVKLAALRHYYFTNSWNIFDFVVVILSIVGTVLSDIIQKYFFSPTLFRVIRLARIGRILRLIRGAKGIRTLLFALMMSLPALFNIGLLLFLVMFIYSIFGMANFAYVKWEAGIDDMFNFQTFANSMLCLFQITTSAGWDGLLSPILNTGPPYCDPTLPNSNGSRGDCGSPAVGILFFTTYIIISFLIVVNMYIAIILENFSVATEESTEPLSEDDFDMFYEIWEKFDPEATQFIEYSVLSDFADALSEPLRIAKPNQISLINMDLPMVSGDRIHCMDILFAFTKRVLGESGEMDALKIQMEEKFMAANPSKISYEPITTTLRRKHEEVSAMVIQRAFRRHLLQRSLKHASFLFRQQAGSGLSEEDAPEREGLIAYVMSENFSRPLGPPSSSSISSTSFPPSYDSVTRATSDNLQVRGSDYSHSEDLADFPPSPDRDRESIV

Structure (SMILES)	sodium current remaining after use-dependent block, % of the initial value (human Nav1.7 channels)	Nav subtype selectivity (Nav1.7 sodium channels; Nav1.5 versus Nav1.7, thallium flux)	extracellular block of Nav1.7 (Nav1.7 sodium channels; doses of up to 1 mM, applied extracellularly, HEK cells)	extracellular concentration at which dose dependent block of Nav1.7 starts (Nav1.7 sodium channels; thallium flux, HEK cells, FIG. 4) [millimolar]	extracellular block of Nav1.5 (Nav1.5 sodium channels; doses of up to 1 mM, applied extracellularly)	extracellular concentration at which dose dependent block of Nav1.5 starts (Nav1.5 sodium channels; thallium flux, FIG. 3) [millimolar]	sodium currents in DRG neurons versus capsaicin alone [1]	inhibition of cough [2] [%]	Cough Count [2]
CCC[N+]1(C(CC)C(=O)Nc2c(C)cccc2C)CCCCC1 (centres unmarked) [Compound 1, 1-(1-(2,6-dimethylphenylamino)-1-oxobutan-2-yl)-1-propylpiperidinium chloride]	about 15%	did not display any Nav subtype selectivity	did not exhibit significant extracellular block	≥ 10	did not exhibit significant extracellular block	≥ 10	considerably smaller	81	4 (2×) and 0 (7×) and 2 and 7 and 6
CC[N+](CC)(CC)CC(=O)Nc1c(C)cccc1C [QX-314, reference compound]	about 62%	–	–	–	–	–	robust block	–	–
CCCC(C(=O)Nc1c(C)cccc1C)[N+]1(CC)CCCCC1 (centres unmarked) [Compound 2, 1-(1-((2,6-dimethylphenyl)amino)-1-oxopentan-2-yl)-1-ethylpiperidin-1-ium]	about 14%	–	–	–	–	–	–	65	8 and 0 (5×) and 2 (2×) and 13 and 11 and 6 and 1
